Consider 3 compounds from patent publication US8394829B2, “Bi-functional quinoline analogs” (Gilead Sciences, Inc., priority 2010, dated 2013).

SMILES strings stand for the structures.

As a reminder, the IC50 is the concentration that inhibits the measured activity by half. For orientation: EC50 means the concentration needed to bring the measured effect to its halfway point.

Assay [1] concerns LPS-induced neutrophil recruitment into the lungs. The assay can be described thus: Inhibition of LPS-induced neutrophil recruitment into the lungs of Lewis rats. The format is in vivo. To be noted: intra-tracheal dose of 300 μg/kg, 2 h before LPS aerosol, BAL 4 h post-LPS. As to the method:
Inhibition of Lipoploysaccharide (LPS)-Induced Neutrophil Recruitment into the Lungs of Lewis Rats
Rats were anesthetized with 4% isoflurane, placed in the supine position at an angle of 30°, the mouth opened and the trachea exposed. A 22-gauge needle with a syringe attached was introduced into the trachea and test compound in suspension (200 μl volume per 400 g) was delivered into the lungs from approximately one centimeter above the carina. The rats were allowed to recover and two hrs later conscious animals were placed into a chamber and exposed to aerosolized LPS (1.0 mg/mL) at a rate of 3.0 L/min for 20 min. Rats were euthanized 4 h post-LPS exposure by an overdose of pentobarbital (90 mg/kg) by intra-peritoneal injection. […] The supernatant was discarded, the cells were re-suspended in PBS and total cell counts were determined based on a 10 μl sample of re-suspended cells stained with trypan blue and counts performed using a Countess® cell counter (Invitrogen). […] Manual eye counting was performed to determine the percentage number of cells in the cytospun sample (determined as macrophages, neutrophils, eosinophils, T-lymphocytes and eosinophils) and these values were used to determine the total number of each cell type per sample. Typically experiments contained a minimum of six rats per experimental group and the mean±SEM number of neutrophils was determined for each group. […]

Another assay addresses T1, Human recombinant PDE4B2 (Homo sapiens, UniProt Q07343).
T1 construct: purchased BPS Bioscience
The assay can be described thus: Inhibition of PDE4B4 enzyme activity (PDE Glo Assay). It is filed as biochemical. To be noted: human recombinant PDE4B2, 50 nM cAMP; read-out: PDE4 IC50. The procedure, abridged:
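Human recombinant PDE4B2 (0.12 nM) was pre-incubated with compound for 10 min at rt, then 50 nM cAMP was added for 1 hr. After IBMX stop and PKA detection, read-out was Kinase-Glo luminescence. IC50 came from a single-site nonlinear fit of RLU versus concentration.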

The target of assay [2] is T2, human recombinant beta-2 adrenoreceptors (Homo sapiens, UniProt P07550).
T2 construct: expressed in transfected cells; host or cells: CHO cells
The assay can be described thus: Beta-2 adrenoceptor binding assay ([3H](−)CGP-12177 displacement). The settings on record: CHO cells expressing human beta-2 adrenoreceptors, [3H](−)CGP-12177 0.3 nM, 120 min. The method in brief: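 Displacement of [3H](−)CGP-12177 (0.3 nM) from human recombinant beta-2 receptors expressed in CHO cells, measured after 120 min incubation with test compound. Bound radioligand counted by scintillation; IC50 taken from concentration-response curves as 50% of each compound's maximal inhibition.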

The target in assay [3] is T2, human recombinant beta-2 adrenoreceptors. The assay can be described thus: Functional agonism of human recombinant beta-2 adrenoreceptors expressed in CHO cells (cAMP HTRF). It is filed as cell-based. The settings on record: CHO cells expressing human beta-2 adrenoreceptors, cAMP elevation, 30 min. The method in brief: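 CHO cells expressing recombinant receptor incubated with compound for 30 min; intracellular cAMP rise over control read by HTRF. EC50 taken as concentration giving 50% of that compound's own maximal response, with full or partial agonism judged against isoproterenol maximum.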

Assay [4] relates to LPS-induced TNF-α release from human peripheral blood mononuclear cells (PBMC). The assay can be described thus: Inhibition of LPS-induced TNF-α release from human PBMC. The format is cell-based. To be noted: LPS 0.4 ng/mL, 6 h, presence or absence of ICI-118551 not given. The procedure, abridged:
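Ficoll-purified primary PBMC, 100,000 cells/well, pre-incubated 30 min ± 10 μM ICI-118551 (± gives PDE4-only vs PDE4 plus beta-2 activity), then compound 1 h at 37 °C (0.1% DMSO). Stimulated with 0.4 ng/mL LPS for 6 h; supernatant TNF-α by bead cytokine assay; IC50 from single-site fit.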

T2 sequence (P07550 whole entry): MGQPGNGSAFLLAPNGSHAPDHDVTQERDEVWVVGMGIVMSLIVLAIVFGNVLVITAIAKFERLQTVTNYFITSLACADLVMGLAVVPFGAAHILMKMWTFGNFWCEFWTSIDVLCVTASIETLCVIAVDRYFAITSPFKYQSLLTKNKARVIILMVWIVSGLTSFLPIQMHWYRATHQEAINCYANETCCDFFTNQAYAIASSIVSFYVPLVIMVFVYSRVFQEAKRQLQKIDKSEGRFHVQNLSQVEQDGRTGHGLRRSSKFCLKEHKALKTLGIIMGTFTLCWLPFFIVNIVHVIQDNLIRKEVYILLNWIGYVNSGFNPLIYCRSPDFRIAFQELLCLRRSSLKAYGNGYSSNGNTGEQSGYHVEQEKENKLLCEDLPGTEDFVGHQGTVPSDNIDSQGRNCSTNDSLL
T1 sequence (Q07343 1-564 isoform Q07343-2): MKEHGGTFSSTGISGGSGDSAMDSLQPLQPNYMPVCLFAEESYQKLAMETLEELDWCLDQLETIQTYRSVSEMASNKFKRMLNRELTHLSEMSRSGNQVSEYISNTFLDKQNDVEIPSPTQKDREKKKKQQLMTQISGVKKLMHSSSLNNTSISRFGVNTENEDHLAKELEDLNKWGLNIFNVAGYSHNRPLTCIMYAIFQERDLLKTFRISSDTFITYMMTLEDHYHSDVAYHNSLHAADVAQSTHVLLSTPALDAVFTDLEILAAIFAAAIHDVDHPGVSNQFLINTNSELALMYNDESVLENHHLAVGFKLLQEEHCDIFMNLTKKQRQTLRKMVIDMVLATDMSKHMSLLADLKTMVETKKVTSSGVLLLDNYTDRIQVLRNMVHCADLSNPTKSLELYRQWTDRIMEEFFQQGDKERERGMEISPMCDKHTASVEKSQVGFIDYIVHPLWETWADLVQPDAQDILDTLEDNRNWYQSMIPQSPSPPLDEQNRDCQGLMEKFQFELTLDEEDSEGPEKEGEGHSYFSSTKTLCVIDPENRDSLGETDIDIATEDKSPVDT

For the compound `COc1cccc(Nc2c(C(N)=O)cnc3c(C)cc(S(=O)(=O)c4cccc(C(=O)Nc5ccc(CCCCCNC[C@H](O)c6ccc(O)c(CO)c6)cc5)c4)cc23)c1` [Example 26, (R)-6-[[3-[[4-[5-[[2-Hydroxy-2-[4-hydroxy-3-(hydroxymethyl)phenyl]ethyl]amino]pentyl]phenyl]carbamoyl]phenyl]sulfonyl]-4-[(3-methoxyphenyl)amino]-8-methylquinoline-3-carboxamide 2,2,2-trifluoroacetate], the neutrophil inhibition in assay [1] is no more than 40%. Further, the IC50 is less than 100 nM at Human recombinant PDE4B2 and greater than 300 nM in assay [2]. Moreover, the figures for the concentration for a half-maximal effect (EC50) in assay [3] and in assay [4] were greater than 300 nM and less than 100 nM, respectively.
For `COc1cccc(Nc2c(C(N)=O)cnc3c(C)cc(S(=O)(=O)c4cccc(C(=O)NCCCCCCNC[C@H](O)c5cc(O)cc6c5OCC(=O)N6)c4)cc23)c1` [Example 23, (R)-6-((3-((6-((2-hydroxy-2-(6-hydroxy-3-oxo-3,4-dihydro-2H-benzo[b][1,4]oxazin-8-yl)ethyl)amino)hexyl)carbamoyl)phenyl)sulfonyl)-4-((3-methoxyphenyl)amino)-8-methylquinoline-3-carboxamide], the IC50 (at Human recombinant PDE4B2; in assay [2]) was less than 100 nM each time. In addition, the EC50 in assay [3] and in assay [4] was less than 100 nM each time.
On to `COc1cccc(Nc2c(C(N)=O)cnc3c(C)cc(S(=O)(=O)c4ccc(-c5ccc(CNC[C@H](O)c6ccc(O)c7[nH]c(=O)ccc67)cc5)cc4)cc23)c1` [Example 48, (R)-6-((4′-(((2-hydroxy-2-(8-hydroxy-2-oxo-1,2-dihydroquinolin-5-yl)ethyl)amino)methyl)-[1,1′-biphenyl]-4-yl)sulfonyl)-4-((3-methoxyphenyl)amino)-8-methylquinoline-3-carboxamide], for which the IC50 (on Human recombinant PDE4B2; in assay [2]) was less than 100 nM throughout. The EC50 in assay [3] and in assay [4] was less than 100 nM each time.
